Data published in ChEMBL document CHEMBL1201862, “PubChem BioAssay data set” (2004).
Each block holds one molecule with its values, some of them ahead of it. Active and inactive are the calls of the source.

What was measured:
Bcl-2-related protein A1 = biological target: T1, Bcl-2-related protein A1 (Mus musculus, UniProt Q07440); assay type: functional;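 note: confirmatory dose–response counterscreen on Bfl-1, used to check hits from a UBC13 polyubiquitin inhibitor campaign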
T1 sequence (Q07440 whole entry): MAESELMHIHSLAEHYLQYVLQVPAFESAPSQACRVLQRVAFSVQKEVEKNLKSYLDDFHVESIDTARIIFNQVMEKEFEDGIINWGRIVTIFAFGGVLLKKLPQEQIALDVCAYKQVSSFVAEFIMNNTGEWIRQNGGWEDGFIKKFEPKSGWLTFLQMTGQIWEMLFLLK

[1] = biological target: T2, Ubiquitin-conjugating enzyme E2 N (Homo sapiens, UniProt P61088); assay type: functional
T2 sequence (P61088 whole entry): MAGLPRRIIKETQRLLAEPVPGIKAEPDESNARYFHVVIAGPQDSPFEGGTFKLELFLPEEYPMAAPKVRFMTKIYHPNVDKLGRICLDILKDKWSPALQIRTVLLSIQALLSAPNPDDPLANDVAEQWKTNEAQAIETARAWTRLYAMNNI

[2] = biological target: T2, Ubiquitin-conjugating enzyme E2 N; assay type: functional; remark: listed apart in the source
[3] = biological target: T3, Apoptotic protease-activating factor 1 (Homo sapiens, UniProt O14727); assay type: functional
T3 sequence (O14727 whole entry): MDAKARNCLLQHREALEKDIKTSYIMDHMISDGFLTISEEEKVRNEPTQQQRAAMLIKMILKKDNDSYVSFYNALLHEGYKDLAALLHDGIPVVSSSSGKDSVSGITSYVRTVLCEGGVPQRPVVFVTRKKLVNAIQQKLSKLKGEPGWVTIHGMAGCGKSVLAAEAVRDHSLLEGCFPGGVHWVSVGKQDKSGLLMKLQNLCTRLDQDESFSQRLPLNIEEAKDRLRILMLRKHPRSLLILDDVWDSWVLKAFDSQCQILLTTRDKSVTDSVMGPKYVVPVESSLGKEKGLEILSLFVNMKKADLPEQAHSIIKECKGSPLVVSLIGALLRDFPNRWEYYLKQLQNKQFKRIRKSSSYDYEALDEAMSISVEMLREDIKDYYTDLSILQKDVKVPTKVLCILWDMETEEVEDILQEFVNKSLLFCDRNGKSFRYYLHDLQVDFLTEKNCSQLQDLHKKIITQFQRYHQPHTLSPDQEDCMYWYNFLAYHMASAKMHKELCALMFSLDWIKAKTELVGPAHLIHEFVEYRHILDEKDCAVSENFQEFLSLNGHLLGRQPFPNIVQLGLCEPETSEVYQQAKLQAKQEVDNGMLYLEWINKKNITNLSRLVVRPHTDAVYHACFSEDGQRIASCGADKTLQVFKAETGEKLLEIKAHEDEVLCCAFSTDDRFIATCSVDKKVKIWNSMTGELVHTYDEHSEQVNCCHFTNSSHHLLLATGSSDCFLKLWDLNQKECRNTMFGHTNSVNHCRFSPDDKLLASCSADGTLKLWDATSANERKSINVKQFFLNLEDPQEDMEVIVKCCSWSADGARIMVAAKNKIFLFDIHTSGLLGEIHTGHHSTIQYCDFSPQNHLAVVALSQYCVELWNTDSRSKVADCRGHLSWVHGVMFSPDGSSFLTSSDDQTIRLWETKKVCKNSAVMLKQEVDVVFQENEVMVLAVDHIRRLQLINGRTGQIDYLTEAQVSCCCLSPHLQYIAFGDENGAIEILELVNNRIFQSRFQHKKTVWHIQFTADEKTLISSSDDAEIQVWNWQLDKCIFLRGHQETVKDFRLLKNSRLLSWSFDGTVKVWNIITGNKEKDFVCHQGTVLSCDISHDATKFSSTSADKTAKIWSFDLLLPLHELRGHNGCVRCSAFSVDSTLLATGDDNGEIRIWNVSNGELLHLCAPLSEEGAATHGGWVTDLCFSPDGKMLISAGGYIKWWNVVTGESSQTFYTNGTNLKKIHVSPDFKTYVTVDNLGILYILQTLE

Cytochrome P450 2C9 = Cytochrome P450 2C9 (Homo sapiens, UniProt P11712)
Cytochrome P450 3A4 = Cytochrome P450 3A4 (Homo sapiens, UniProt P08684);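 note: CYP3A4 tested as one member of a cytochrome P450 panel screen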
Beta-galactosidase = Beta-galactosidase (Escherichia coli, UniProt Q8VNN2); test: PubChem AID 485352; assay type: functional
[4] = biological target: T4, Type-1 angiotensin II receptor (Homo sapiens, UniProt P30556); test: AT1 receptor antagonists, dose response, selectivity assay for APJ receptor antagonist project, cell-based, uHTS hits (AID 463214); assay type: functional;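 note: antagonist potency against angiotensin II stimulated AT1 response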
T4 sequence (P30556 whole entry): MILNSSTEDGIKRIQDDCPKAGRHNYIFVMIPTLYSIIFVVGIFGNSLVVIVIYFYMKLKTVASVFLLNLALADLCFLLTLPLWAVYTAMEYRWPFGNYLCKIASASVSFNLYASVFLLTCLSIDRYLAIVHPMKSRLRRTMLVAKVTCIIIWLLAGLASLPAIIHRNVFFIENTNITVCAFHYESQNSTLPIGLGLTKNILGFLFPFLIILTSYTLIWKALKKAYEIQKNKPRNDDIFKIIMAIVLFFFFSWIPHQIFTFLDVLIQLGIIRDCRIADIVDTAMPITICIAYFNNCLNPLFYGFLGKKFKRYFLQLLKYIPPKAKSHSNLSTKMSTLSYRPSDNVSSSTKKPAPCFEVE

[5] = biological target: T5, Sentrin-specific protease 8 (Homo sapiens, UniProt Q96LD8); assay type: functional
T5 sequence (Q96LD8 whole entry): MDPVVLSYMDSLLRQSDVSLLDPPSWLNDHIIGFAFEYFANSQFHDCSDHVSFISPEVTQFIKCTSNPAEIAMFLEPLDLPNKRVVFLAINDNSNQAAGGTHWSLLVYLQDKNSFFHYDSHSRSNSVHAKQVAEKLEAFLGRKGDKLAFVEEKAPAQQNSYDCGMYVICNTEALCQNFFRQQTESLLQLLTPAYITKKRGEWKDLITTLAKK

[6] = biological target: T5, Sentrin-specific protease 8; assay type: functional; remark: listed apart in the source
[7] = biological target: T6, Short transient receptor potential channel 4 (Mus musculus, UniProt Q9QUQ5); test: mouse TRPC4 channel activators, dose response, cell-based, HEK293 TRPC4/mu-opioid, Fluo-4 calcium (AID 434937); assay type: functional
T6 sequence (Q9QUQ5 whole entry): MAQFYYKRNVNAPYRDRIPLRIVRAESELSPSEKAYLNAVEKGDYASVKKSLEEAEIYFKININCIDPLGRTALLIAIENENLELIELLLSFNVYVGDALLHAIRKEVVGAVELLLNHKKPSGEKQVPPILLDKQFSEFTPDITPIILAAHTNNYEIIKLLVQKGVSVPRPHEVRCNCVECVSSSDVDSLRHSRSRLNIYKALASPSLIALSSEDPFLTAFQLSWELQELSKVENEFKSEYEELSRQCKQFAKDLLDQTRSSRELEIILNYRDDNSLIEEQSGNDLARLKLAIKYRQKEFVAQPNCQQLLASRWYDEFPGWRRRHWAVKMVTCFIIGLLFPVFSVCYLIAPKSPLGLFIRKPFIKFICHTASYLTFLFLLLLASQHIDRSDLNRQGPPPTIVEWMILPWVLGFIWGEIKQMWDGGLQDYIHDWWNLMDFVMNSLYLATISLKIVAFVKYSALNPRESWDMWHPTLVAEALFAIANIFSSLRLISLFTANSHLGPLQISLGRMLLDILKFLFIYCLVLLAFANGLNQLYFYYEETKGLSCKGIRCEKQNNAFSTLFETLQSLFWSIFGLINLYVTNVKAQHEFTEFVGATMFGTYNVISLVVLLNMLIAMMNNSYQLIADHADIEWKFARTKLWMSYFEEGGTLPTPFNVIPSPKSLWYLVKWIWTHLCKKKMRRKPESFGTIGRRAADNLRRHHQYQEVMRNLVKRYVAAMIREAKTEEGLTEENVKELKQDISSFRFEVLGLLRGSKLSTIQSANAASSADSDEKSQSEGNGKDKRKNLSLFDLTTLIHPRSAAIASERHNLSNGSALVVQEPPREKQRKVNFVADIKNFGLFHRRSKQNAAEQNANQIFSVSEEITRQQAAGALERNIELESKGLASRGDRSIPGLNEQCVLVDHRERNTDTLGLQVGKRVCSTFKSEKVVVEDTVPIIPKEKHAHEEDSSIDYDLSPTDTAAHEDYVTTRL

Genome polyprotein = Genome polyprotein (dengue virus type 2, UniProt P29990); test: Dengue-2 NS5 methyltransferase inhibitors, primary screen, biochemical, confirmation dose response (AID 588689); assay type: functional
[8] = biological target: Dual specificity tyrosine-phosphorylation-regulated kinase 1A (Rattus norvegicus, UniProt Q63470); assay type: biochemical, Homo sapiens
P388/ADR = test: cells; assay type: functional; details: Mus musculus
SN12K1 = test: cells; assay type: functional; details: Homo sapiens
[9] = system: Streptococcus sp. 'group A'; test: growth inhibition of control SK(-) GAS strain, dose response, counter-screen for streptokinase expression inhibitor project, luminescence, kanamycin, BacTiterGlo, confirmation (AID 1900); assay type: functional, organism-based
Streptococcus = test: Group A Streptococcus viability loss, dose response, counter-screen for streptokinase expression inhibitor project, luminescence, BacTiterGlo (AID 1915); assay type: functional, organism-based;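 note: potency for reduction of bacterial viability or growth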
Cytochrome P450 2C19 = Cytochrome P450 2C19 (Homo sapiens, UniProt P33261); test: Cytochrome panel assay with activity outcomes. Panel member name: p450-cyp2c19 Compounds with AC50 equal or less than 10 uM are considered active; assay type: functional; details: read-out: AC50
Cytochrome P450 1A2 = biological target: T7, Cytochrome P450 1A2 (Homo sapiens, UniProt P05177);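 note: PubChem cytochrome P450 panel assay, CYP1A2 panel member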
T7 sequence (P05177 whole entry): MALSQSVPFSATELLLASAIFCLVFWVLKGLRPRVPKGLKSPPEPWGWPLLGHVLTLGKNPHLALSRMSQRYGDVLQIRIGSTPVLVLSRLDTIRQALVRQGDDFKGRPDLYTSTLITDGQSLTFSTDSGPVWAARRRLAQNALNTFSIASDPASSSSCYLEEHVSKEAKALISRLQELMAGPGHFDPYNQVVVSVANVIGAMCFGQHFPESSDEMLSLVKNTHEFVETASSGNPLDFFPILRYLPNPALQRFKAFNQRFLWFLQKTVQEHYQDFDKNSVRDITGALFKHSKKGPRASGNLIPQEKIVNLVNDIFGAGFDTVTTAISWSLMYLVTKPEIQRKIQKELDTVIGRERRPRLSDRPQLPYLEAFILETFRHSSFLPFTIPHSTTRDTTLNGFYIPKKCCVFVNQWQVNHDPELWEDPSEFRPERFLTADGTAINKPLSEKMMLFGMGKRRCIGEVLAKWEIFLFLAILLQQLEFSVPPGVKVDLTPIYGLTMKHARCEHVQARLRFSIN

Cytochrome P450 3A4, sequence (P08684 whole entry): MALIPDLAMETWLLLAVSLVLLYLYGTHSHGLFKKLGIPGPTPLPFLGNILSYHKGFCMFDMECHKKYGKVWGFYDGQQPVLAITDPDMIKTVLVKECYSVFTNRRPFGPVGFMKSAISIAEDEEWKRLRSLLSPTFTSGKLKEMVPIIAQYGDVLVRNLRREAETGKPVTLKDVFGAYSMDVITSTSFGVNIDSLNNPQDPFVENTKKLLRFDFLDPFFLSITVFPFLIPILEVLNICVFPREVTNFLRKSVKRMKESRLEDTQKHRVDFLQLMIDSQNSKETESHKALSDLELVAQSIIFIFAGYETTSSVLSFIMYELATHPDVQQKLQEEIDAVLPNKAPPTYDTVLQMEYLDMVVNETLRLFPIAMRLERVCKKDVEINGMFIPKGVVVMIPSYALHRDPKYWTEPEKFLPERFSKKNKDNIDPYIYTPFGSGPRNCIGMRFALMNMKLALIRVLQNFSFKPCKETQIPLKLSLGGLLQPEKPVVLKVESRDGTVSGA
Beta-galactosidase, sequence (Q8VNN2 whole entry): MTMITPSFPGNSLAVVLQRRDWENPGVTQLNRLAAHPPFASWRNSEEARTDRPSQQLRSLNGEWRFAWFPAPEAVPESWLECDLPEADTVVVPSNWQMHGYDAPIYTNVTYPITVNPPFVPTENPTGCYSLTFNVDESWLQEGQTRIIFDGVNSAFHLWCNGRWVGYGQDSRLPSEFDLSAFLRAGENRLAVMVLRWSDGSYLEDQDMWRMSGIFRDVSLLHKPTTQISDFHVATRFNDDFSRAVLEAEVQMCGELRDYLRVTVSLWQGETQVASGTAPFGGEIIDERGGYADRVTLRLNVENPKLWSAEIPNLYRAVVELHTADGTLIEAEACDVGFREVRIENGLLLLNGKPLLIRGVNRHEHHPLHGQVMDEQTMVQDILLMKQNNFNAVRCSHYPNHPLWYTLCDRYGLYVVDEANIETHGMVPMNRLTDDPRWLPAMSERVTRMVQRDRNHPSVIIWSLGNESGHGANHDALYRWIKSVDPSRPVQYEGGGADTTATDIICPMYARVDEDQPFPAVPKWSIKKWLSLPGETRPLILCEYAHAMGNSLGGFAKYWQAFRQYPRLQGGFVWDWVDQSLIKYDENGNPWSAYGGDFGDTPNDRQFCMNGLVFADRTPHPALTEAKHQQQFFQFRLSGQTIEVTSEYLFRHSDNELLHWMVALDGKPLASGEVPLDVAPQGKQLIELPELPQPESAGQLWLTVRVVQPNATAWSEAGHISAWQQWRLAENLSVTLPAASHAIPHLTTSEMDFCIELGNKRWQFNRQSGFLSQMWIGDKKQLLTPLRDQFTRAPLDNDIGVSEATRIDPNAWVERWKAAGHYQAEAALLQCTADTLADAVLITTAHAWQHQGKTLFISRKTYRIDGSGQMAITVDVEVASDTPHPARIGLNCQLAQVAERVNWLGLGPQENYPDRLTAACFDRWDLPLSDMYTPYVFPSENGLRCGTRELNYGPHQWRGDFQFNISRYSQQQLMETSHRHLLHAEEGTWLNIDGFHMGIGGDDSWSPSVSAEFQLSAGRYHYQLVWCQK
Cytochrome P450 2C19, sequence (P33261 whole entry): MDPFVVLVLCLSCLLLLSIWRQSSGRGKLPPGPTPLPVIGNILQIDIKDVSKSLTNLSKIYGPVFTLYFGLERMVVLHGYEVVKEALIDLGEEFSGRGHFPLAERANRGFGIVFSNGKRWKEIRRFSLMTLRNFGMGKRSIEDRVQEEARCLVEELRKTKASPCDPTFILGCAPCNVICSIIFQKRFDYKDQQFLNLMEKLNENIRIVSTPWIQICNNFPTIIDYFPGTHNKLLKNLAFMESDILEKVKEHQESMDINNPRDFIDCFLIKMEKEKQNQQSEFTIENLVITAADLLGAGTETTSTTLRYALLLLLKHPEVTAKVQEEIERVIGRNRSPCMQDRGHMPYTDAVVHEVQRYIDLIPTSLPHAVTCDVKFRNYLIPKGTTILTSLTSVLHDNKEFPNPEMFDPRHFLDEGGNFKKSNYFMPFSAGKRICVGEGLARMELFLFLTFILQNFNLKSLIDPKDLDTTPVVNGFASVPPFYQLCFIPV
Cytochrome P450 2C9, sequence (P11712 whole entry): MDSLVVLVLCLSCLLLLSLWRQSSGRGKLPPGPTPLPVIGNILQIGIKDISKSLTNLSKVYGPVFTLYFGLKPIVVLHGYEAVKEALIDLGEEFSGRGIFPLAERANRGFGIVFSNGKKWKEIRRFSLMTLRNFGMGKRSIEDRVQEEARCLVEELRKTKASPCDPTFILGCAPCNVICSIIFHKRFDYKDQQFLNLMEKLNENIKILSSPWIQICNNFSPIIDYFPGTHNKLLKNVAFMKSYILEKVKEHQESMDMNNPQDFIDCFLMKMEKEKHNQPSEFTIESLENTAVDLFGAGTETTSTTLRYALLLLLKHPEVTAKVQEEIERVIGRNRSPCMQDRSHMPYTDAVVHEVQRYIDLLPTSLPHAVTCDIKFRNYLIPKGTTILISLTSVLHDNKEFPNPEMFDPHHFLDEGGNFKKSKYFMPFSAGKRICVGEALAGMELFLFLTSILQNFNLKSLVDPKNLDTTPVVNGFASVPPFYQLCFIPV
Genome polyprotein, sequence (P29990 2492-3391 limits assumed): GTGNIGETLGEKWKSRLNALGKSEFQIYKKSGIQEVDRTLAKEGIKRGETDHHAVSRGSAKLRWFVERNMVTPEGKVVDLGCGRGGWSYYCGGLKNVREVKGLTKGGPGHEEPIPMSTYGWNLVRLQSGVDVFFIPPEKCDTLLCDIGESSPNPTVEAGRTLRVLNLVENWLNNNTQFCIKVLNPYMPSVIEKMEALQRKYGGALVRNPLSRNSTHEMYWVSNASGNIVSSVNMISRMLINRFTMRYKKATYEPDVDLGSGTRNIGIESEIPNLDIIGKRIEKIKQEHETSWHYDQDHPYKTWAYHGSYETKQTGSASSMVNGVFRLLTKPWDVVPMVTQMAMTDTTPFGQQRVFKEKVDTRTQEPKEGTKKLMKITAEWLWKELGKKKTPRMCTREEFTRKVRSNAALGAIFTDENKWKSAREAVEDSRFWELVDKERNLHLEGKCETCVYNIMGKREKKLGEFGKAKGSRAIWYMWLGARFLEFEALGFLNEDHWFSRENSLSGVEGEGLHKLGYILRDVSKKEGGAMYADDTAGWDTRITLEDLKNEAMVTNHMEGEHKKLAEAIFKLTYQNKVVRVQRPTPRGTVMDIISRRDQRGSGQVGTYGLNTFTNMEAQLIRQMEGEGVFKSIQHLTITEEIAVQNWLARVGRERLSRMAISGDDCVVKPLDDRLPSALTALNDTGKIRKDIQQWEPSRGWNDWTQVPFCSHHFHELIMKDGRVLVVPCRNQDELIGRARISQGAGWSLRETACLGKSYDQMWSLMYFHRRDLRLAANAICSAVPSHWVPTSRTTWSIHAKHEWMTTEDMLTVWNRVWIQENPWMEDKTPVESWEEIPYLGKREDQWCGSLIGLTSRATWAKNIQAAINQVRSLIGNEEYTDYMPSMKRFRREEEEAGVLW

- IC50 (Bcl-2-related protein A1): > 20 µM (inactive)
- IC50 [1]: 10.4 µM (active)
- IC50 [2]: 11.2 µM (active)
SMILES: Cn1c(=O)c2c(ncn2Cc2cccc(Cl)c2)n(C)c1=O

- IC50 [3]: 7.9 µM (active)
SMILES: O=C(CCCN1CCc2[nH]c3ccc(F)cc3c2C1)c1ccc(F)cc1

- EC50 [7]: 0.0333 µM (active)
SMILES: CSc1ccc(C(=O)NCC(c2ccco2)N(C)C)cc1[N+](=O)[O-] (configuration not stated)

- IC50 [3]: 45.8 µM (active)
SMILES: O=C(NCC(c1ccco1)N1CCCC1)c1cccc(S(=O)(=O)Nc2ccc(Br)cc2)c1 (configuration not stated)

- EC50 (Beta-galactosidase): > 40 µM (inactive)
- IC50 [4]: 35.3 µM (not active)
SMILES: COc1ccccc1NCC(=O)c1ccc(Cl)cc1

- EC50 [7]: 0.596 µM (active)
SMILES: CN(C)C(CNC(C(=O)Nc1ccc(F)cc1)c1ccccc1)c1ccccc1 (configuration not stated)

- EC50 [7]: 5.31 µM (active)
SMILES: COc1ccc(C(CNC(=O)c2cccc(NS(=O)(=O)c3ccc(C)c(F)c3)c2)N(C)C)cc1 (configuration not stated)

- EC50 [7]: 0.473 µM (active)
SMILES: COc1ccc(C(CNc2nc(-c3cccnc3)nc3ccccc23)N(C)C)cc1 (configuration not stated)

- EC50 (Beta-galactosidase): > 40 µM (inactive)
- IC50 [4]: 31.2 µM (not active)
SMILES: CSCCC(NC(=O)COc1ccccc1)C(=O)OCC(=O)c1cc2ccccc2o1 (configuration not stated)

The next lines start with the molecule.

SMILES: COCCNC(=O)Cn1cnc2ccc(S(=O)(=O)N3CCC(C)CC3)cc2c1=O
- AC50 (Cytochrome P450 2C9): 10 µM (inconclusive)
- AC50 (Cytochrome P450 3A4): inconclusive

SMILES: N#CC(C#N)=CC1=C2OC(c3ccccc3)=CC(c3ccccc3)=C2CCC1
- EC50 (Beta-galactosidase): > 40 µM (inactive)
- IC50 [4]: > 40 µM (not active)

SMILES: N#CC1(CCCN2CCCCC2)c2ccccc2CCc2ccccc21
- IC50 [5]: 35.4 µM (active)
- IC50 [6]: 43.4 µM (active)

SMILES: O=C1NC(=O)/C(=C/c2ccc(-c3cc(C(=O)O)ccc3Cl)o2)S1
- IC50 (Genome polyprotein): 49.4 µM (active)
- AC50 [8]: 2.56 µM (active)

SMILES: Cc1ccc(-c2oc3ncnc(N)c3c2-c2ccc(C)cc2)cc1
- IC50 (Bcl-2-related protein A1): > 20 µM (inactive)
- IC50 [1]: 12.5 µM (active)
- IC50 [2]: 4.6 µM (active)

SMILES: CN1CCN(c2ncc3nc(-c4ccc(Cl)cc4)c(=O)n(C4CC4)c3n2)CC1
- AC50 (Cytochrome P450 3A4): inconclusive

SMILES: NC(=O)C#CC(N)=O
- GI50 (P388/ADR): 1.02 µM (active)
- GI50 (SN12K1): 12.9 µM (inactive)

SMILES: CC(C)c1ccc(OCC(=O)NNC(=S)NC(=O)C2CC2)cc1
- EC50 [9]: 0.85 µM (active)
- EC50 (Streptococcus): 1.33 µM (active)
- IC50 (Bcl-2-related protein A1): > 20 µM (inactive)
- IC50 [1]: 17.3 µM (active)
- IC50 [2]: 6.97 µM (active)

SMILES: CN(C)C/C=C/C(=O)Nc1cccc(-c2c[nH]c3ncnc(Oc4ccc(NC(=O)CC(=O)Nc5ccc(F)cc5)cc4F)c23)c1
- IC50 (Bcl-2-related protein A1): > 20 µM (inactive)
- IC50 [1]: 3.5 µM (active)
- IC50 [2]: 2.28 µM (active)

SMILES: CC(=O)Nc1ccc(C2(c3ccc(NC(C)=O)cc3)C(=O)Nc3ccccc32)cc1
- EC50 [7]: 1.5 µM (active)

SMILES: O=C1C2C3C=CC(CC3)C2C(=O)N1/N=C/c1ccccc1O (configuration not stated)
- AC50 (Cytochrome P450 2C19): 15.8 µM (inconclusive)
- AC50 (Cytochrome P450 1A2): 1.78 µM (inconclusive)
- AC50 (Cytochrome P450 2C9): 14.1 µM (inconclusive)
- AC50 (Cytochrome P450 3A4): inconclusive

SMILES: CCOc1cccc(OCCCNCCCOC)c1
- AC50 (Cytochrome P450 2C19): 28.2 µM (inconclusive)
- AC50 (Cytochrome P450 3A4): inconclusive
